For data set [1], the target named is Sphingosine 1-phosphate receptor 1 (Homo sapiens, UniProt P21453). Nature of the data set: Agonist activity at SIP1 receptor by tango assay. It counts as functional.
The target in data set [2] is Sphingosine 1-phosphate receptor 3 (Homo sapiens, UniProt Q99500). Nature of the data set: Agonist activity at human SIP3 receptor assessed as calcium mobilization by GeneBLAzer assay. The format is functional. A general note: A change in cytosolic calcium serves as a functional read-out for many receptors and channels.
Sequence of Sphingosine 1-phosphate receptor 3 (Q99500 whole entry): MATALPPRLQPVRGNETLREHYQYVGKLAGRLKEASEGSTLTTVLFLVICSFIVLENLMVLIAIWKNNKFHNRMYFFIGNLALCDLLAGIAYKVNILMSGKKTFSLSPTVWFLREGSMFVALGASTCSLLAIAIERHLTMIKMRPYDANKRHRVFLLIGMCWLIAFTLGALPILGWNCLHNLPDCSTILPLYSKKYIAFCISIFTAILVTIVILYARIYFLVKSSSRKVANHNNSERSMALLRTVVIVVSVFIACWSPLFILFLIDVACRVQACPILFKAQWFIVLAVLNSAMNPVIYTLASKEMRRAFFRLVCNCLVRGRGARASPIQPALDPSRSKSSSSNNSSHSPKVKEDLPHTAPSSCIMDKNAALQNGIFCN
Data set [3] is described as follows: Ratio of drug level in brain to blood in iv dosed mouse after 1 hr. The format is ADME, organism-based. The following applies: read-out: BBR.
Data set [4] can be described thus: Ratio of drug level in brain to blood in iv dosed mouse after 4 hrs. The following applies: read-out: BBR. It counts as ADME, organism-based.
A short description of data set [5]: Half life in mouse at 2 mg/kg, po. The note with it: in vivo. The arrangement: dose 2 mg/kg, route oral. It counts as ADME, organism-based.
A short description of data set [6]: Cmax in mouse at 2 mg/kg, po. The format is ADME, organism-based. Details: dose 2 mg/kg, route oral. The note with it: in vivo.
Data set [7] is described as follows: Oral bioavailability in mouse at 2 mg/kg. The format is ADME, organism-based. The following applies: in vivo.
Data set [8] in a line: AUC (0 to 24 hrs) in mouse at 2 mg/kg, po. It counts as ADME, organism-based. The arrangement: time < 24 hr, dose 2 mg/kg, route oral. The following applies: plasma.
Data set [9] can be described thus: Clearance in iv dosed mouse. It counts as ADME, organism-based. The following applies: in vivo.
A short description of data set [10]: Volume of distribution in iv dosed mouse. It counts as ADME, organism-based. The following applies: in vivo.
Data set [11] deals with Mus musculus. Nature of the data set: Lymphopenia activity in mouse assessed as reduction in blood lymphocytes at 1 mg/kg after 4 hrs relative to control. It counts as functional. The arrangement: scale not given: the % may be the effect or the level left.
The test system of data set [12] is Mus musculus. Nature of the data set: Lymphopenic activity in mouse assessed as reduction in blood lymphocytes at 1 mg/kg after 24 hrs relative to control. The format is functional, organism-based. Details: dose 1 mg/kg.
The species entered for data set [13] is Homo sapiens. Nature of the data set: Selectivity ratio of EC50 for SIP1 receptor to EC50 for human SIP3 receptor.
Data set [14] is filed under the species Mus musculus. The experiment in a line: Lymphopenic activity in C57BL/6 mouse assessed as reduction in blood lymphocytes relative to control. The format is functional. Details: scale not given: the % may be the effect or the level left.
The species entered for data set [15] is Mus musculus. The experiment in a line: Lymphopenic activity in C57BL/6 mouse assessed as reduction in blood lymphocytes after 4 to 8 weeks relative to control. The format is functional, organism-based.

The source made the active and inactive calls.

Sequence of Sphingosine 1-phosphate receptor 1 (P21453 whole entry): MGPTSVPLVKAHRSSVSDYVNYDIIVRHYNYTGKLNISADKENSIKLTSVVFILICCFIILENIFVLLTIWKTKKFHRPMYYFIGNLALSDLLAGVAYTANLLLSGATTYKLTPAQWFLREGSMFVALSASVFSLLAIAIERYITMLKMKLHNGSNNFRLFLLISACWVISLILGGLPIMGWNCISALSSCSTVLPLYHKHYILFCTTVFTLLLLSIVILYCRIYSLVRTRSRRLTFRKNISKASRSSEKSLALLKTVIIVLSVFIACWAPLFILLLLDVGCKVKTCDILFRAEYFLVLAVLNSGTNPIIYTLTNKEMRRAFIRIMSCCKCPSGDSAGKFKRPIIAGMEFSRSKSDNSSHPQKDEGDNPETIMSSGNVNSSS

The term EC50 denotes the concentration giving half of the maximal effect. The half-life is the time needed for the level to fall by half in the phase considered. As usually defined, the Cmax is the peak of the concentration-time curve. What is called bioavailability is the share of a dose that reaches the circulation, judged against a reference dose that is usually intravenous. The term AUC(0-t) denotes the area under the concentration-time curve up to a stated or last time point. What is called clearance is the rate of elimination divided by the concentration. For orientation: Vd means a proportionality between amount in the body and measured concentration, not a real space. Turning to `O=C(O)C1CCN(c2ccc3oc(-c4ccc(-c5ccccc5)c(C(F)(F)F)c4)nc3c2)CC1`, the EC50 in data set [1] was 0.631 nM; in data set [2], above 3160 nM. Also, the Kp at 1 h in [3] is 1.45. Also, in data set [4], the Kp at 4 h worked out at 3.73. The compound also had a half-life in [5] of 5.4 h. The Cmax in data set [6] was determined as 1070 ng/mL. In data set [7], this compound displayed a bioavailability above 100%. Moreover, the AUC(0-t) at 24 h in data set [8] turned out to be 10300 ng·h/mL. The compound further returned a clearance in data set [9] of 3.68 mL/min/kg. Also, in [10], the Vd was found to be 1.48 L/kg. Further, the Activity in [11] came out at 37%. The result in data set [12] was inactive.

In the case of `O=C(O)C1CN(CCc2ccc3oc(-c4ccc(-c5ccccc5)c(C(F)(F)F)c4)nc3c2)C1`, the EC50 in data set [1] was 0.398 nM; in [2] it was 794 nM.

With `O=C(O)C1CCN(CCCc2ccc3oc(-c4ccc(-c5ccccc5)c(C(F)(F)F)c4)nc3c2)CC1`, the results for the EC50 in [1] and in data set [2] were 0.794 nM and 501 nM, respectively.

With `O=C(O)CCCCCc1cn2cc(-c3ccc(-c4ccccc4)c(C(F)(F)F)c3)nc2s1`, the results for the concentration for a half-maximal effect (EC50) in data set [1] and in data set [2] were 63.1 nM and above 10000 nM, respectively.

For the compound `O=C(O)CCCCCc1cnc2oc(-c3cc(-c4ccccc4)c(C(F)(F)F)s3)nc2c1`, the EC50 in [1] is 398 nM; in data set [2] it was above 10000 nM.

With `O=C(O)CCN1CCC(c2ccc3oc(-c4ccc(-c5ccccc5)c(C(F)(F)F)c4)nc3c2)CC1`, the EC50 in data set [1] is 0.0794 nM; in [2], 1000 nM.

For the compound `CC(C)Oc1ccc(-c2nc3cc(CCCCCC(=O)O)cnc3o2)cc1C(F)(F)F`, the EC50 in [1] is 20 nM; in data set [2] it was above 10000 nM.

Regarding `CC(C)Oc1ccc(-c2nc(-c3cccc4c3ccn4CCC(=O)O)no2)cc1Cl`, in data set [1], it took 0.01 nM to reach a half-maximal effect (EC50). The Ratio EC50 in data set [13] stood at 1e+06.

Consider `CC(C)Oc1ccc(-c2nc3cc(CCCC(=O)O)cnc3o2)cc1Cl`, for which the EC50 is 1000 nM in [1] and above 10000 nM in [2].

As to `CC(C)Oc1ccc(-c2nc(-c3cccc4c3c(Cl)cn4CCC(=O)O)no2)cc1Cl`, the EC50 in data set [1] was 0.0251 nM; in [2] it was above 10000 nM.

Take `CC(C)Oc1ncc(-c2nc3cc(CCCCCC(=O)O)cnc3o2)cc1C(F)(F)F`: the EC50 was 6.31 nM in [1] and above 10000 nM in [2].

In the case of `CC(C)Oc1ncc(-c2nc3cc(CCCCCC(=O)O)cnc3o2)cc1Cl`, the EC50 is 1000 nM in data set [1] and above 10000 nM in [2].

On to `O=C(O)C1CCN(CCc2ccc3oc(-c4ccc(-c5ccccc5)c(C(F)(F)F)c4)nc3c2)CC1`, for which the EC50 in data set [1] was 0.158 nM; in [2], 501 nM.

As for `O=C(O)CN1CCC(c2ccc3oc(-c4ccc(-c5ccccc5)c(C(F)(F)F)c4)nc3c2)CC1`, the EC50 in data set [1] is 1 nM; in data set [2], 2000 nM.

On to `CC(C)Oc1ccc(-c2nc3cc(CCCCC(=O)O)cnc3o2)cc1Cl`, for which the EC50 is 158 nM in data set [1] and above 10000 nM in [2].

Turning to `O=C(O)CCCCCc1ccc2[nH]c(-c3ccc(-c4ccccc4)c(C(F)(F)F)c3)cc2c1`, the EC50 in data set [1] is 126 nM; in [2], above 10000 nM.

For the compound `CC(C)Oc1ccc(-c2nc3cc(CCCCCC(=O)O)cnc3o2)cc1Cl`, the EC50 was 158 nM in data set [1] and above 10000 nM in data set [2].

For `O=C(O)CCCCCc1cnc2sc(-c3ccc(-c4ccccc4)c(C(F)(F)F)c3)nc2c1`, the results for the EC50 in data set [1] and in data set [2] were 10 nM and above 10000 nM, respectively.

With `O=C(O)CC1CCN(c2ccc3oc(-c4ccc(-c5ccccc5)c(C(F)(F)F)c4)nc3c2)CC1`, the figures for the EC50 in data set [1] and in [2] were 1.26 nM and 1260 nM, respectively.

Consider `O=C(O)CCCCCc1ccn2nc(-c3ccc(-c4ccccc4)c(C(F)(F)F)c3)nc2c1`, for which the results for the EC50 in [1] and in data set [2] were 126 nM and above 10000 nM, respectively.

Consider `O=C(O)C1CN(c2ccc3oc(-c4ccc(-c5ccccc5)c(C(F)(F)F)c4)nc3c2)C1`, for which the figures for the EC50 in [1] and in data set [2] were 10 nM and 2000 nM, respectively.

Regarding `O=C(O)C1CCCN(CCCc2ccc3oc(-c4ccc(-c5ccccc5)c(C(F)(F)F)c4)nc3c2)C1` (centres undefined), the EC50 was 0.501 nM in data set [1] and 2000 nM in data set [2].

For the compound `O=C(O)CCCCCc1ccc2oc(-c3ccc(-c4ccccc4)c(C(F)(F)F)c3)nc2c1`, the figures for the EC50 in [1] and in data set [2] were 0.398 nM and above 10000 nM, respectively.

Consider `O=C(O)CCCCCc1cnc2oc(-c3ccc(-c4ccccc4)c(C(F)(F)F)c3)nc2c1`, for which the EC50 in data set [1] is 0.316 nM; in data set [2] it was above 10000 nM.

In the case of `CC(C)Oc1ccc(-c2nc3cc(CCC(=O)O)cnc3o2)cc1Cl`, the EC50 in data set [1] is above 3160 nM; in data set [2], above 10000 nM.

`O=C(O)CCNCCc1ccc2oc(-c3ccc(-c4ccccc4)c(C(F)(F)F)c3)nc2c1`: the EC50 is 0.0316 nM in [1] and 200 nM in [2].

For the compound `CC(C)Oc1ccc(-c2nc3cc(CC(=O)O)cnc3o2)cc1Cl`, the EC50 in data set [1] is above 3160 nM; in data set [2], above 10000 nM.

In the case of `O=C(O)CCCCCc1ccn2cc(-c3ccc(-c4ccccc4)c(C(F)(F)F)c3)nc2c1`, the EC50 was 398 nM in data set [1] and above 10000 nM in data set [2].

Turning to `O=C(O)CN1CCN(c2ccc3oc(-c4ccc(-c5ccccc5)c(C(F)(F)F)c4)nc3c2)CC1`, the EC50 in data set [1] was 0.398 nM; in data set [2] it was 2000 nM.

As to `CN(CCCc1ccc2oc(-c3ccc(-c4ccccc4)c(C(F)(F)F)c3)nc2c1)CC(=O)O`, the EC50 in data set [1] is 0.316 nM; in data set [2], 1000 nM.

On to `O=C(O)C1CN(CCCc2ccc3oc(-c4ccc(-c5ccccc5)c(C(F)(F)F)c4)nc3c2)C1`, for which the EC50 in data set [1] was 0.1 nM; in [2] it was 126 nM.

For the compound `CCCCCCCCc1ccc(CCC(N)(CO)CO)cc1.Cl` [FINGOLIMOD HYDROCHLORIDE], in data set [14], the Activity came out at 20%. Also, the result in data set [15] was inactive.

With `CC(C)Oc1ccc(-c2nc3cc(C(=O)O)cnc3o2)cc1Cl`, the values for the EC50 in data set [1] and in data set [2] were above 3160 nM and above 10000 nM, respectively.

`O=C(O)CNCCCc1ccc2oc(-c3ccc(-c4ccccc4)c(C(F)(F)F)c3)nc2c1`: the EC50 is 0.0316 nM in data set [1] and 251 nM in data set [2]. In data set [13], the Ratio EC50 is above 1000.
